From patent US20120282646A1, “METHOD FOR ACTIVATING A NATURAL KILLER CELL BY ADJUSTING THE EXPRESSION OF THE SOCS2 GENE” (Korea Research Institute of Bioscience and Biotechnology, priority 2009, published 2012)
Where a SMILES comes first, the peptide text is derived from it. The star is where a group is joined. Cbz = O=C(OCc1ccccc1)*

Columns and labels:
Assay type in all cases: cell-based, human
[1] = system: NK-92 cells; assay: Cytotoxicity of MAPK inhibitor-treated NK-92 cells against K562; details: NK-92 cells treated with 10 mM inhibitor; compared with ERK and p38 inhibitors
[2] = system: Pyk2; assay: Immunoprecipitation of Flag-Pyk2, GST-SOCS2 and HA-ubiquitin in 293T cells; details: MG132-containing medium vs general culture medium
Protocol: In order to determine whether SOCS2 inhibits the proteasome-mediated Pyk2 degradation or not, the following experiment was carried out. First of all, pGST-SOCS2, pFlag-Pyk2, and HA-ubiquitin (AddGene) were cotransformed into 293T cells using Lipofectamin 2000. After 4 hr of transformation, the medium was replaced to a general culture medium or MG132 (proteasome inhibitor)-containing medium, and 24 hr later, cells were lysed. The each cell lysate was allowed to react with anti-Flag antibody or anti-GST antibody. The antigen-antibody complexes were precipitated by incubation at 4° C. for 1 day with G-protein-conjugated agarose (Roshe, Switzerland). The immunoprecipitated complexes were washed with 1×PBS. Western blot analysis was performed by the same method in Example <2-1> using anti-GST antibody, anti-Flag antibody, or anti-HA antibody (Santa Cruz, U.S.A.).

[3] = system: Pyk2; assay: GST pull down of GST-SOCS2 and Flag-Pyk2 in 293T cells; details: MG132-containing medium vs general culture medium
Protocol: The GST expression vector and pFlag-Pyk2, or pGST-SOCS2 and pFlag-Pyk2 were cotransformed into 293T cells using Lipofectamin 2000 (Invitrogen, U.S.A.). After 4 hr of transformation, the medium was replaced to a general culture medium or MG132 (proteasome inhibitor)-containing medium, and […], cells were lysed. The each cell lysate was allowed to react with glutathione-sepharose bead (GE Healthcare, U.S.A.) at 4° C. for 4 hr. Western blot analysis was performed by the same method in Example <2-1> using anti-Flag primary antibody (Santa Cruz, U.S.A.) or anti-GST primary antibody (Santa Cruz, U.S.A.).

[4] = system: NK-92 cells; assay: Western blot of SOCS2 and p-Pyk2Tyr402 after IL-15 in NK-92 cells; details: IL-15 for 6, 12 or 24 hr
Protocol: (§1) Each NK cell was lysed in RIPA buffer (50 mM Tris-HCl, pH 7.4, 150 mM NaCl, 0.25% SDS, 1% NP-40, 1 mM EDTA, a protease inhibitor cocktail, and a phosphate inhibitor cocktail) and the concentration of protein present in the whole cell lysate was determined using BCA Protein Assay Kit (Pierce, U.S.A.). 30 μg of each protein sample was resolved using 10 or 12% SDS-PAGE gel and transferred to an Immobilon-P membrane (Millipore Corporation, U.S.A.). The membrane was blocked with 5% skim milk and treated with anti-SOCS2 antibody (Santa Cruz, U.S.A.) as a primary antibody for 1 day at 4° C. HRP-conjugated anti-rabbit secondary antibody (Santa Cruz, U.S.A.) was attached to the primary antibody-treated membrane, and then, Immobilon Western Chemiluminescent HRP Substrate (Milipore Corporation) was added thereto. The membrane was exposed to X-ray film. As quantitative control, the amount of expression of GAPDH was examined using anti-GAPDH primary antibody (Santa Cruz, U.S.A.) by the above method.
To assess how SOCS2 which binds with p-Pyk2^Tyr402 in NK cells regulates Pyk2, the following experiment was carried out. With NK-92 cells cultured without or with IL-15 for 6, 12 or 24 hr using the same method in Example <2-2>, Western blot analysis was carried out using the same method in Example <2-1> with anti-SOCS2 antibody, anti-p-Pyk2^Tyr402 antibody, anti-Pyk2 antibody and anti-GAPDH antibody. […]

[5] = system: primary NK cells; assay: socs1, socs2, socs3 mRNA expression by real time PCR in IL-15-stimulated primary NK cells; details: IL-15 stimulation after deprivation
Protocol: Deprivation and IL-15 stimulation was carried out with primary NK cells using the same method in Example <2-2>. The amounts of mRNA expression of socs1, socs2 and socs3 were measured by real time PCR. Primers in Table 1 and Table 3 were used.
Specifically, each NK cell was collected and total RNA was extracted using Trizol Reagent (Invitrogen, U.S.A.). Then, 1 μg of the RNA was reverse transcribed into cDNA using reverse transcriptase superscript II (Invitrogen). Using the cDNA as template, real time PCR was performed with the 2×SYBR Premix Ex Taq™ (TaKaRa, Japan) and SOCS2 primer pairs of Table 2 (Exicycler version 2, Bioneer, Republic of Korea). Concurrently, using GAPDH (Glyceraldehyde-3-phosphate dehydrogenase) as a quantitative control, real time PCR was performed with GAPDH primer pair of Table 2. The PCR condition was as follows: denaturation of 10 min at 95° C.; 40 cycles of […], 30 sec at 60° C., and 1 min at 72° C.; and extension of 8 min at 72° C. followed by cooling to room temperature. After analyzing real time PCR data by the comparative CT (2^−ΔΔCt) method which normalizes the amount of socs2 expression of each sample to the amount of GAPDH expression, the relative amount of SOCS2 expression in differentiated NK cells at each day to the amount of socs2 expression in primary NK cells was shown as a graph in FIG. 1(a).

[6] = system: NK-92 cells and primary NK cells; assay: SOCS2 protein expression by Western blot after IL-15 stimulation; details: IL-15 stimulation after deprivation
Protocol: as §1, with “method. […]” for “method.”

[7] = system: NK-92 cells; assay: socs2 mRNA expression by real time PCR in cytokine-treated NK-92 cells
Protocol: NK cell differentiation is mediated by IL-15 (Interleukin 15) cytokine. To determine whether the SOCS2 upregulation following NK cell differentiation was induced by IL-15, the present inventors experimented on the IL-15-induced SOCS2 upregulation in mature NK cells. The experimented NK-92 human NK cells and primary NK cells live and proliferate in the condition where IL-15 exists. Accordingly, to measure the effect of IL-15, deprivation of IL-15 was carried out by culturing cells in a medium without IL-15 for 24 hr prior to IL-15 treatment, and then the medium was replaced with a medium containing 10 ng/mL IL-15 to make a cell differentiation condition. Real time PCR was carried out with NK-92 cells at 4, 8, 12, and 16th hr after the replacement of the medium using the same method in Example <3-1-1> to measure the amount of socs2 mRNA expression.
Specifically, each NK cell was collected and total RNA was extracted using Trizol Reagent (Invitrogen, U.S.A.). Then, 1 μg of the RNA was reverse transcribed into cDNA using reverse transcriptase superscript II (Invitrogen). […] Concurrently, using GAPDH (Glyceraldehyde-3-phosphate dehydrogenase) as a quantitative control, real time PCR was performed with GAPDH primer pair of Table 2. […]

[8] = system: primary NK cells; assay: Western blot of SOCS2 and p-Pyk2Tyr402 after IL-15 in primary NK cells; details: primary NK cells with or without IL-15
Protocol: as §1
NK cells cultured without or with IL-15, Western blot analysis was carried out using the same method in Example <2-1> with anti-SOCS2 antibody, anti-p-Pyk2^Tyr402 antibody, anti-Pyk2 antibody and anti-GAPDH antibody.

[9] = system: Pyk2; assay: Immunoprecipitation for ubiquitination of Pyk2 after IL-15 in NK-92 cells; details: NK-92 cells stimulated with IL-15, anti-Pyk2 immunoprecipitation
Protocol: To determine whether the decrease in p-Pyk2^Tyr402 by SOCS2 expression, confirmed in Example <13> resulted from the ubiquitin-mediated proteasomal degradation of p-Pyk2^Tyr402 by increased SOCS2 by IL-15, the following experiment was carried out. NK-92 cells stimulated with IL-15 as in Example <2-2> were lysed and the cell lysates were allowed to react with anti-Pyk2 antibody. The antigen-antibody complexes were precipitated by incubation at 4° C. for 1 day with G-protein-conjugated agarose. The immunoprecipitated complexes were washed with 1×PBS. Western blot analysis was performed by the same method in Example <2-1> using anti-ubiquitin antibody (Santa Cruz, U.S.A.), anti-SOCS2 antibody, anti-p-Pyk2^Tyr402 antibody, anti-Pyk2 antibody, and anti-GAPDH antibody.

[10] = system: SOCS2; assay: SOCS2 protein knockdown by siRNA, Western blot; details: primary NK cells transduced with siRNA, IL-15 stimulation 16 hr
Protocol: as §1
IL-15 is an essential cytokine for NK cell differentiation. With SOCS2 expression inhibited, the present inventors measured the NK cell differentiation by IL-15 stimulation. […] Concurrently, β-actin expression was also observed by using anti-β-actin primary antibody (Santa Cruz, U.S.A.) as a quantitative control.

[11] = system: primary NK cells; assay: NK cell differentiation, CD-56 expression by FACS; details: primary NK cells transduced with siRNA, day 2, 3, 5, IL-15 stimulation
Protocol: Also, to determine whether the inhibition of SOCS2 expression affected the NK cell differentiation or not, primary NK cells were transduced with siRNA and CD-56 expression was measured by performing FACS on the cells at 2, 3, and 5th day.

## Oc1c2ccccc2c2c3c(cccc13)N=N2 [JNK inhibitor, SP600125]
[1]
  cytotoxicity against the K562 cancer cell line: most significantly reduced

## CC(C)C[C@@H](C=O)NC(=O)[C@H](CC(C)C)NC(=O)[C@H](CC(C)C)NC(=O)OCc1ccccc1 [MG132] (Cbz-Leu-Leu-Leu-aldehyde)
[2]
  GST band and HA (ubiquitin) bands in anti-Flag immunoprecipitate: significantly large GST band and more HA bands
[3]
  Flag band (Flag-Pyk2) in GST pull down: significantly large Flag band

## IL-15: cytokine priming NK cell differentiation (Peprotech)
[4]
  SOCS2 expression: increased in an IL-15 stimulation time-dependent manner
  phosphorylation of tyrosine 402 in Pyk2: decreased
[5]
  mRNA expression of socs1, socs2 and socs3: only socs2 mRNA expression among SOCS family members increased
[6]
  SOCS2 protein expression: IL-15 stimulated SOCS2 expression was observed in both NK-92 cells and primary NK cells
[7]; NK-92 cells deprived of IL-15 24 hr, then 10 ng/mL IL-15, 4, 8, 12, 16 hr
  SOCS2 expression (socs2 mRNA): SOCS2 expression increased in NK-92 cells
[7]; deprived NK-92 cells, 30 ng/mL IL7, IL-12, IL-15, IL-18, IL-21 for 16 hr
  SOCS2 expression (mRNA), specificity among cytokines: SOCS2 expression was induced specifically by IL-15 stimulation
[8]
  expression of SOCS2 and phosphorylation of Pyk2: induced the expression of SOCS2 and the decrease in the phosphorylation of Pyk2
[9]
  phosphorylation of Pyk2: phosphorylation of Pyk2 decreased
  ubiquitination of Pyk2: ubiquitination of Pyk2 increased

## SOCS2 siRNA: SOCS2 siRNA (Dharmacon, SEQ ID NO.12: 5′-CGACUACUAUGUUCAGAUG-3′) (listed as RNA, chemistry not given here)
[10]
  SOCS2 protein expression: SOCS2 protein expression was inhibited
[11]
  CD-56 expression (NK cell differentiation): increased CD-56 expression similarly regardless of whether SOCS2 protein was expressed or not
